Experimental data taken from patent US20230174530A1, “N-(PHENYLAMINOCARBONYL) TETRAHYDRO-ISOQUINOLINES AND RELATED COMPOUNDS AS MODULATORS OF GPR65” (PATHIOS THERAPEUTICS LIMITED, priority 2020, published 2023).
pIC50: −log10 of the molar value.

target: T1, human recombinant GPR65 (Homo sapiens, UniProt Q8IYL9); test: Human GPR65 cAMP HTRF antagonist assay; format: cell-based; conditions: 1321N1-hrGPR65 cells stimulated at assay pH 7.2; suppression of cAMP rise; read-out: hGPR65 IC50
T1 construct: host or cells: 1321N1 human astrocytoma cells (1321N1-hrGPR65)
T1 sequence (Q8IYL9 whole entry): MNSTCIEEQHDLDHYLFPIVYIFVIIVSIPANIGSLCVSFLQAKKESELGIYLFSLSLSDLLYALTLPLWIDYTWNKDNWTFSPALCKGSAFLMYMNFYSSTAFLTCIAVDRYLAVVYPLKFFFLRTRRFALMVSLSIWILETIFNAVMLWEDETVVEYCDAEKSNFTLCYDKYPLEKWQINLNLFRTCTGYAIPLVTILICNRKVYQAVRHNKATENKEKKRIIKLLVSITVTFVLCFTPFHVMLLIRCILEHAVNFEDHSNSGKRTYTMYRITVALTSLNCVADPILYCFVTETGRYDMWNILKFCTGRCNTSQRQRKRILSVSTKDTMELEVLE
Procedure, shortened: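 1321N1 astrocytoma cells stably expressing human GPR65, 2,000 per well in KRH with 1 mM IBMX and 200 μM EDTA, preincubated 30 min with compound at RT. Acid stimulation at pH 7.2 for 30 min, pH 7.9 as control. cAMP read by HTRF 665/620 ratio; IC50 from normalised 4-parameter fit.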

Structure (SMILES)	pIC50
O=C(Nc1ccc(Cl)c(Cl)c1)N1CCc2nocc2C1 [Compound 98, N-(3,4-Dichlorophenyl)-6,7-dihydroisoxazolo[4,3-c]pyridine-5(4H)-carboxamide]	5.30 to 6.30
O=C(Nc1ccc(Cl)c(Cl)c1)N1CCc2cn3ccnc3cc2C1 [Compound 115, N-(3,4-Dichlorophenyl)-6,7-dihydroimidazo[1,2-b][2,6]naphthyridine-8(9H)-carboxamide]	< 5.30
O=C(Nc1ccc(Cl)c(Cl)c1)N1CCc2cc(-c3cccs3)ccc2C1 [Compound 127, N-(3,4-Dichlorophenyl)-6-(thiophen-2-yl)-3,4-dihydroisoquinoline-2(1H)-carboxamide]	< 5.30
O=C(Nc1ccc(Cl)c(Cl)c1)N1CCc2cn3ncnc3cc2C1 [Compound 121, N-(3,4-Dichlorophenyl)-6,7-dihydro-[1,2,4]triazolo[1,5-b][2,6]naphthyridine-8(9H)-carboxamide]	< 5.30
O=C(Nc1ccc(Cl)c(Cl)c1)N1CCc2c(ccnc2F)C1 [Compound 120, N-(3,4-Dichlorophenyl)-5-fluoro-3,4-dihydro-2,6-naphthyridine-2(1H)-carboxamide]	> 6.30
O=C(Nc1ccc(C(F)(F)F)cc1)N1CCc2ncncc2C1 [Compound 4, N-(4-(Trifluoromethyl)phenyl)-7,8-dihydropyrido[4,3-d]pyrimidine-6(5H)-carboxamide]	< 5.30
Nc1nccc2c1CCN(C(=O)Nc1ccc(Cl)c(Cl)c1)C2 [Compound 119, 5-Amino-N-(3,4-dichlorophenyl)-3,4-dihydro-2,6-naphthyridine-2(1H)-carboxamide]	< 5.30

Now from value to compound:

pIC50	Structure (SMILES)
< 5.30	CS(=O)(=O)c1ccc2c(c1)CCN(C(=O)Nc1ccc(Cl)c(Cl)c1)C2 [Compound 125, N-(3,4-Dichlorophenyl)-6-(methylsulfonyl)-3,4-dihydroisoquinoline-2(1H)-carboxamide]
5.30 to 6.30	COC(=O)c1ccc2c(c1)CN(C(=O)Nc1ccc(Cl)c(Cl)c1)CC2 [Compound 131, Methyl 2-((3,4-dichlorophenyl)carbamoyl)-1,2,3,4-tetrahydroisoquinoline-7-carboxylate]
5.30 to 6.30	O=C(Nc1ccc(Cl)c(C(F)(F)F)c1)N1CCc2ncncc2C1 [Compound 5, N-(4-Chloro-3-(trifluoromethyl)phenyl)-7,8-dihydropyrido[4,3-d]pyrimidine-6(5H)-carboxamide]
< 5.30	O=C(Nc1ccc(C(F)(F)F)c(Cl)c1)N1CCc2cc[n+]([O-])cc2C1 [Compound 94, 7-((3-Chloro-4-(trifluoromethyl)phenyl)carbamoyl)-5,6,7,8-tetrahydro-2,7-naphthyridine 2-oxide]
< 5.30	O=C(Nc1ccc(Cl)c(C(F)(F)F)c1)N1CCc2[nH]c(=O)ccc2C1 [Compound 77, N-(4-Chloro-3-(trifluoromethyl)phenyl)-2-oxo-1,5,7,8-tetrahydro-1,6-naphthyridine-6(2H)-carboxamide]
> 6.30	O=C(Nc1ccc(Cl)c(Cl)c1)N1CCc2cc(Cl)ccc2C1 [Compound 52, 6-Chloro-N-(3,4-dichlorophenyl)-3,4-dihydroisoquinoline-2(1H)-carboxamide]
< 5.30	O=C(Nc1ccc(C(F)(F)F)c(Cl)c1)N1CCc2c[nH]c(=O)cc2C1 [Compound 100, N-(3-Chloro-4-(trifluoromethyl)phenyl)-7-oxo-3,4,6,7-tetrahydro-2,6-naphthyridine-2(1H)-carboxamide]
< 5.30	O=C(Nc1ccc(Cl)c(C(F)(F)F)c1)N1CCc2c(Cl)cccc2C1 [Compound 56, 5-Chloro-N-(4-chloro-3-(trifluoromethyl)phenyl)-3,4-dihydroisoquinoline-2(1H)-carboxamide]
5.30 to 6.30	COc1ccc2c(c1)CCN(C(=O)Nc1ccc(Cl)c(C(F)(F)F)c1)C2 [Compound 66, N-(4-Chloro-3-(trifluoromethyl)phenyl)-6-methoxy-3,4-dihydroisoquinoline-2(1H)-carboxamide]
